Measurements reported in the supplement of paper PMC12463676, “Small-molecule dissolution of stress granules by redox modulation benefits ALS models” (Nature Chemical Biology, 2025).

Experiments:
lipoamide = compound: NC(=O)CCCCC1CCSS1 [lipoamide]; assay: thermal stability z-score vs DMSO; higher = more thermally stabilized by treatment; conditions: HeLa, lipoamide concentration 100 µM
Procedure: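 Cellular thermal proteome profiling in HeLa cells. Cells were treated with 100 µM lipoamide for 1 h, with or without 1 mM arsenate for a further 1 h, then heated to ten temperatures (37-66.3 °C), and soluble protein was quantified by TMT mass spectrometry relative to 0.1% DMSO controls. The thermal stability score (sum of log2 fold changes minus the abundance score) was transformed to a z-score; mean of n = 3 experiments.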

potassium arsenate = compound: O=[As]([O-])(O)O.[K+] [potassium arsenate]; assay: as above; conditions: HeLa; arsenate concentration 1 mM
Procedure: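 Cellular thermal proteome profiling in HeLa cells treated with 1 mM arsenate for 1 h (DMSO pretreatment), heated to ten temperatures (37-66.3 °C). Soluble protein was quantified by TMT mass spectrometry relative to DMSO controls; the thermal stability score was transformed to a z-score; mean of n = 3 experiments.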

[1] = arsenate co-treatment: 1 mM arsenate 1 h
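Also: each temperature applied for 3 min, abundance score taken as mean log2 fold change at the two lowest temperatures, z-score obtained by mean subtraction and division by SD.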

UniProt Q8NCE0, sequence (Q8NCE0 whole entry): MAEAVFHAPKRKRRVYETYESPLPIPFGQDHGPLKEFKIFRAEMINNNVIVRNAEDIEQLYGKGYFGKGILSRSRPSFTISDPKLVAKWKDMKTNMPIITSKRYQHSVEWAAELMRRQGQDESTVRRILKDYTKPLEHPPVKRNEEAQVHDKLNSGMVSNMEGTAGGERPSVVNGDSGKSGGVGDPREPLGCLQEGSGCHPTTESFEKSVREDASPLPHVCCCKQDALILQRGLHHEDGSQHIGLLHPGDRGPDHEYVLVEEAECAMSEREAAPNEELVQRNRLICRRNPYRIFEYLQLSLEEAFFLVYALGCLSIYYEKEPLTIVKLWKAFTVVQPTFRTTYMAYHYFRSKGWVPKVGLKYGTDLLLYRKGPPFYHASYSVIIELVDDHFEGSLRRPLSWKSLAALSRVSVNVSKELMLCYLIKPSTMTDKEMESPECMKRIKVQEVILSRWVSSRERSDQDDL
UniProt Q14166, sequence (Q14166 whole entry): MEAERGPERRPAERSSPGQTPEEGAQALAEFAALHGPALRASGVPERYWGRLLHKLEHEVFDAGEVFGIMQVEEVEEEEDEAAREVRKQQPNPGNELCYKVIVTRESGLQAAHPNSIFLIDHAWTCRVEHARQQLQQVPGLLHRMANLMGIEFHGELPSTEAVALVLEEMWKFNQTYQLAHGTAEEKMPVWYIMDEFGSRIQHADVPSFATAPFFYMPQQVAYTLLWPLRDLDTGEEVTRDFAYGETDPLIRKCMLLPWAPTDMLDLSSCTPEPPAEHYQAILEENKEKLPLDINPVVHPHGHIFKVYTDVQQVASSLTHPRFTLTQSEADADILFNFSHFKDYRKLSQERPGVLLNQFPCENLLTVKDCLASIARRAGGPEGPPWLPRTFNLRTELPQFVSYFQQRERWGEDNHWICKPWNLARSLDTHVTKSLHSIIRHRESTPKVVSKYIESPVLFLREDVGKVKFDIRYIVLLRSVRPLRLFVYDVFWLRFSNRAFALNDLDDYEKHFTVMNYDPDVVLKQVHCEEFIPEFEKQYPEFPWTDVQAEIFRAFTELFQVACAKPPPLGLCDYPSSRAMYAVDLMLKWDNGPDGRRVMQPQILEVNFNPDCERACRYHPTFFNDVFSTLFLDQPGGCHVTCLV
UniProt Q9BSV6, sequence (Q9BSV6 whole entry): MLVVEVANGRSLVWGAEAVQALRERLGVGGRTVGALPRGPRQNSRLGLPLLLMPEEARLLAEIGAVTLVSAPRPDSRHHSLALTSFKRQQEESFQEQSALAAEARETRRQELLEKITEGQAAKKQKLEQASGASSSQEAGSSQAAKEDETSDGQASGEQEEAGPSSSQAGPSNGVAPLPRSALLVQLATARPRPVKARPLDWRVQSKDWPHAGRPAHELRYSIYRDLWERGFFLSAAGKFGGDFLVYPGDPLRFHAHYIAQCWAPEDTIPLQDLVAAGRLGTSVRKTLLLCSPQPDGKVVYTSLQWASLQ
UniProt Q16762, sequence (Q16762 whole entry): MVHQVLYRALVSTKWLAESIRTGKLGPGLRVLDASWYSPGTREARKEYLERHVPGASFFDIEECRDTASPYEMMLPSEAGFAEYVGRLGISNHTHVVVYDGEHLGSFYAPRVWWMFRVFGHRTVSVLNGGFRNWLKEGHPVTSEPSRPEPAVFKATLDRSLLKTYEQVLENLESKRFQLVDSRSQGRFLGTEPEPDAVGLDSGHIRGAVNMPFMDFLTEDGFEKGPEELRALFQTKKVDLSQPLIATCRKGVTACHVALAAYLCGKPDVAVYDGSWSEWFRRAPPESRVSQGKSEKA
UniProt Q8NBP0, sequence (Q8NBP0 whole entry): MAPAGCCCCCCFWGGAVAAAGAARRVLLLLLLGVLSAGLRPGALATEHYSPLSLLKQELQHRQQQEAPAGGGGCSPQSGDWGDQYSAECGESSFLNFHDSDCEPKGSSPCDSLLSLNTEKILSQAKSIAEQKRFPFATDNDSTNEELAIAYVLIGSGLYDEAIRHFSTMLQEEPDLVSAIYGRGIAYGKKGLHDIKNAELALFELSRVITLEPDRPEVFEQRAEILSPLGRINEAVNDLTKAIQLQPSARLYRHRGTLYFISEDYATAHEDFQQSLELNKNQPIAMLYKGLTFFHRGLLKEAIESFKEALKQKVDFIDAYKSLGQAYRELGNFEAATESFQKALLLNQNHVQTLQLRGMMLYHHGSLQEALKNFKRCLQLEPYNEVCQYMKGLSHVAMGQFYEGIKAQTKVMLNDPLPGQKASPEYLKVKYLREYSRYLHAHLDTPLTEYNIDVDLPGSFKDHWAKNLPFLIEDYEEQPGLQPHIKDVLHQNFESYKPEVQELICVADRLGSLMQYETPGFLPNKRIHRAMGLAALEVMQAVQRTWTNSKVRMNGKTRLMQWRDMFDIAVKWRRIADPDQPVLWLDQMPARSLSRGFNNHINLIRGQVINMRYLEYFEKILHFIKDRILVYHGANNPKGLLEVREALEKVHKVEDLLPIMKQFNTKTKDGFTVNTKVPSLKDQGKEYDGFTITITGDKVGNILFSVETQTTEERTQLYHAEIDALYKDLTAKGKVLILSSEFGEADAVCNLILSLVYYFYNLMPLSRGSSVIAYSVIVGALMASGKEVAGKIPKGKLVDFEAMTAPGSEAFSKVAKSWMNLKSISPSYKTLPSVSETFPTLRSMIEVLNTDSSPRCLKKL
UniProt Q13509, sequence (Q13509 whole entry): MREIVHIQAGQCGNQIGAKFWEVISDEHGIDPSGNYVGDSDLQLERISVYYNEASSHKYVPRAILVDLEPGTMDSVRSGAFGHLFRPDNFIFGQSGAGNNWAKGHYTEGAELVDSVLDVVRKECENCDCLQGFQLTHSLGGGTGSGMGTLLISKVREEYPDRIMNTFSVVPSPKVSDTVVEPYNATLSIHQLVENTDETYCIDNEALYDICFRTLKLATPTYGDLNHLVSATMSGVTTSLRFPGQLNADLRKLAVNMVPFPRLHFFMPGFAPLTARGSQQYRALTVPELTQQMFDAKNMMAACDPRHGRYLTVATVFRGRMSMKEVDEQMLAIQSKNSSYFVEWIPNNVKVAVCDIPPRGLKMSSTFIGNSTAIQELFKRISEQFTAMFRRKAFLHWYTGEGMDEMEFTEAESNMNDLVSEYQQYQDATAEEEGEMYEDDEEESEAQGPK
UniProt Q9Y5U2, sequence (Q9Y5U2 whole entry): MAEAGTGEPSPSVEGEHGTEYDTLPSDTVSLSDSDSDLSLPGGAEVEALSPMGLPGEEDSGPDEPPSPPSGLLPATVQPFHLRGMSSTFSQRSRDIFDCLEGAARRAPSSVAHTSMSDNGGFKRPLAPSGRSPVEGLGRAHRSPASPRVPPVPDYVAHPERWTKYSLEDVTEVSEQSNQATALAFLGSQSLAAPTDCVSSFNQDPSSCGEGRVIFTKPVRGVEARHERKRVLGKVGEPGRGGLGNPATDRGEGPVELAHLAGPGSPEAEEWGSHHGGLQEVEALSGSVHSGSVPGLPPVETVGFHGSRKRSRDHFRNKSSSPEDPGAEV
UniProt Q8NG68, sequence (Q8NG68 whole entry): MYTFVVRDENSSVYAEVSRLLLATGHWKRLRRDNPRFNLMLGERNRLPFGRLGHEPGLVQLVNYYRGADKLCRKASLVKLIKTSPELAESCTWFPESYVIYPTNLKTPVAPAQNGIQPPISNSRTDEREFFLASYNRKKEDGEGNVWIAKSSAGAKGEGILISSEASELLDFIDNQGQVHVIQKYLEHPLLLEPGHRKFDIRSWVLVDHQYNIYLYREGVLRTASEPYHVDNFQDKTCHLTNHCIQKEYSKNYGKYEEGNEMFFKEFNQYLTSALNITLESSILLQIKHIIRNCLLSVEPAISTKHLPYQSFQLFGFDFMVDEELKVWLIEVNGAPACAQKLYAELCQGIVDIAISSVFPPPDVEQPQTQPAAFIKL
UniProt Q6PID6, sequence (Q6PID6 whole entry): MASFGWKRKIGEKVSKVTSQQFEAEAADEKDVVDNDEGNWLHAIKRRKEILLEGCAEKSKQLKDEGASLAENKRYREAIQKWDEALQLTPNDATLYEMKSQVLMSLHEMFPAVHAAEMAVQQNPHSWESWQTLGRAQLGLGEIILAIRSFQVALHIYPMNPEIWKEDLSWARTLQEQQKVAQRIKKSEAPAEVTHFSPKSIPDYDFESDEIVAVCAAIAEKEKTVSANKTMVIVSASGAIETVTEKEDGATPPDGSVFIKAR
UniProt P33981, sequence (P33981 whole entry): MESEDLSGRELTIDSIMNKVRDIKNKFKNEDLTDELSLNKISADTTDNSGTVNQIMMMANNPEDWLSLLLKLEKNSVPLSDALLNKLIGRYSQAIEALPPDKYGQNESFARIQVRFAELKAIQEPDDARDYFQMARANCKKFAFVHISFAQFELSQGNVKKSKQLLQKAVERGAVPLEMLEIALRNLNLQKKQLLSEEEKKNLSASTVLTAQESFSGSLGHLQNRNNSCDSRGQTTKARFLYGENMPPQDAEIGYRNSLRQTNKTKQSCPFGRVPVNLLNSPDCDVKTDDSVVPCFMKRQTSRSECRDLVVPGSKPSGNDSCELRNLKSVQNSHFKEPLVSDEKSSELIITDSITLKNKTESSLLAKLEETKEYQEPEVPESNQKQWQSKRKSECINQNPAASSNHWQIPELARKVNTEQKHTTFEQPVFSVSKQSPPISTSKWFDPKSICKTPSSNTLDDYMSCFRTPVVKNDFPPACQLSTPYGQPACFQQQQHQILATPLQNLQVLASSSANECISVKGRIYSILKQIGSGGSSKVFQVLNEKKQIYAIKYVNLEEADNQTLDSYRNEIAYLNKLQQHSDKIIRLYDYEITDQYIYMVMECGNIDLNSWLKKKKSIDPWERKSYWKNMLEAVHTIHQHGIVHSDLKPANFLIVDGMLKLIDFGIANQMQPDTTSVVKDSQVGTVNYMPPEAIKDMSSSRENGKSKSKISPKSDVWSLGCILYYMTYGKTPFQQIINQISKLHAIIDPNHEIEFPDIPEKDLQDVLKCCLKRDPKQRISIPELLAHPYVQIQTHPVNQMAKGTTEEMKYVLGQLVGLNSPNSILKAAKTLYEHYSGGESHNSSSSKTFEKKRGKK

| Target | thermal stability z-score (lipoamide; [1]) | thermal stability z-score (lipoamide; arsenate co-treatment: none) | thermal stability z-score (potassium arsenate) |
| --- | --- | --- | --- |
| TSC22D4 (UniProt Q9Y3Q8) | -1.89 | -0.035 | -0.0991 |
| TSEN2 (UniProt Q8NCE0) | 0.337 | 0.418 | -0.00537 |
| TSEN15 (UniProt Q8WW01) | -0.438 | -0.0314 | 0.473 |
| TSEN34 (UniProt Q9BSV6) | -1.1 | 0.117 | -0.292 |
| TSEN54 (UniProt Q7Z6J9) | -0.815 | 0.162 | 0.795 |
| TSFM (UniProt P43897) | -0.91 | -0.179 | -0.0696 |
| TSG101 (UniProt Q99816) | 0.29 | 0.0321 | -0.0661 |
| TSN (UniProt Q15631) | 1.41 | 1.61 | -0.161 |
| TSNAX (UniProt Q99598) | -0.075 | -0.0638 | -0.215 |
| TSPAN4 (UniProt O14817) | -0.0469 | 0.15 | 0.304 |
| TSPAN6 (UniProt O43657) | 0.216 | 0.486 | 0.466 |
| TSPAN13 (UniProt O95857) | 0.229 | 0.441 | -0.0847 |
| TSPO | -0.334 | 0.17 | 0.892 |
| TSPYL1 (UniProt Q9H0U9) | -0.00828 | -0.153 | 0.0344 |
| TSR1 (UniProt Q2NL82) | -0.39 | 0.00573 | 0.334 |
| TSR2 (UniProt Q969E8) | 0.33 | 0.0774 | 0.317 |
| TSR3 (UniProt Q9UJK0) | -0.214 | -0.723 | -1.75 |
| TSSC1 (UniProt Q53HC9) | 0.436 | -0.204 | -0.25 |
| TSSC4 (UniProt Q9Y5U2) | 1.17 | 0.668 | -0.46 |
| TST (UniProt Q16762) | 0.729 | -0.00911 | 1 |
| TSTA3 (UniProt Q13630) | -0.467 | -0.784 | -0.387 |
| TSTD2 (UniProt Q5T7W7) | -0.0897 | -0.178 | -0.0518 |
| TTC1 (UniProt Q99614) | -0.0842 | 0.337 | -0.104 |
| TTC4 (UniProt O95801) | -0.0544 | 0.0918 | -0.14 |
| TTC5 (UniProt Q8N0Z6) | -0.0841 | 0.0677 | -0.0548 |
| TTC9C (UniProt Q8N5M4) | -0.988 | -0.401 | -0.649 |
| TTC13 (UniProt Q8NBP0) | -0.787 | -1.08 | 0.595 |
| TTC17 (UniProt Q96AE7) | -0.85 | -0.317 | 0.453 |

| Target | thermal stability z-score (lipoamide; [1]) | thermal stability z-score (lipoamide; arsenate co-treatment: none) | thermal stability z-score (potassium arsenate) |
| --- | --- | --- | --- |
| TTC19 (UniProt Q6DKK2) | 0.927 | 0.897 | -1.29 |
| TTC21B (UniProt Q7Z4L5) | -0.223 | -0.505 | -0.277 |
| TTC27 (UniProt Q6P3X3) | -0.686 | -0.257 | 0.24 |
| TTC28 (UniProt Q96AY4) | -0.0855 | -0.0784 | -0.0135 |
| TTC33 (UniProt Q6PID6) | 0.242 | 0.0666 | -0.664 |
| TTC37 (UniProt Q6PGP7) | -0.601 | -0.234 | -0.0411 |
| TTC38 (UniProt Q5R3I4) | 1.43 | 1.43 | 1.01 |
| TTC39C (UniProt Q8N584) | 0.0518 | 0.22 | 0.0855 |
| TTF2 (UniProt Q9UNY4) | -1.12 | 0.461 | -0.0154 |
| TTI1 (UniProt O43156) | 0.86 | 1.21 | 1.78 |
| TTI2 (UniProt Q6NXR4) | -1.12 | -0.63 | 0.0606 |
| TTK (UniProt P33981) | -0.85 | -0.0774 | 0.742 |
| TTL (UniProt Q8NG68) | -0.0821 | 0.166 | -0.126 |
| TTLL12 (UniProt Q14166) | 1.14 | 0.696 | -0.427 |
| TTN (UniProt Q8WZ42) | 0.609 | 0.578 | 0.121 |
| TTPAL (UniProt Q9BTX7) | 0.0476 | 0.0717 | 0.594 |
| TTYH3 (UniProt Q9C0H2) | 0.027 | 0.0475 | -0.648 |
| TUBA1C (UniProt Q9BQE3) | -0.163 | 0.681 | -0.265 |
| TUBA4A (UniProt P68366) | -0.0177 | -0.502 | -0.681 |
| TUBB2A (UniProt Q13885) | 0.383 | 0.458 | 0.692 |
| TUBB3 (UniProt Q13509) | 0.871 | 0.131 | -0.447 |
| TUBB6 (UniProt Q9BUF5) | -0.348 | 0.0923 | 0.532 |
| TUBB (UniProt P07437) | 0.525 | -0.284 | -0.425 |
| TUBG1 (UniProt P23258) | 0.135 | -0.106 | 0.415 |
| TUBGCP2 (UniProt Q9BSJ2) | -0.0736 | -0.0416 | 0.27 |
| TUBGCP3 (UniProt Q96CW5) | 0.238 | 0.127 | 0.123 |
| TUBGCP4 (UniProt Q9UGJ1) | -0.259 | -0.815 | 0.141 |
